Experimental findings from patent US12539292B2, “BRM targeting compounds and associated methods of use” (Arvinas Operations, Inc., priority 2018, dated 2026) are described below.

This assay deals with T1, BRM (Homo sapiens, UniProt P51531).
T1 construct: In-Cell Western Screen of BRM Degradation in SW1573 Cells; endogenous in cells; host or cells: SW1573
Kind of assay: In-cell Western screen of BRM degradation in SW1573 cells (Dmax and DC50). The class given is cell-based. The method, boiled down:
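SW1573 cells were treated with compound overnight (18-20 h; final DMSO 0.1%), then fixed in 4% PFA, permeabilized with Triton X-100 and blocked. BRM was detected by in-cell Western using 800 nm anti-rabbit and 680 nm anti-mouse secondaries, and Dmax and DC50 were derived from the LI-COR Odyssey signal.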

[1] abbreviates: BRM degradation, SW1573 cells, read-out: DC50.
The mark [2] stands for this setting: BRM degradation, SW1573 cells, when tested at the top concentration of between 0.3 and 10 μM, read-out: Dmax (%) (% degraded).
The mark [3] stands for this setting: BRM degradation, SW1573 cells, tested at the top concentration of between 0.3 and 10 μM, read-out: Dmax (%) (% degraded).
Where [4] appears, read: BRM degradation, SW1573 cells, read-out: Dmax (% degraded).

Each structure is given as a SMILES string. Like-named read-outs stand apart in the source and are kept apart here.

T1 sequence (P51531 whole entry): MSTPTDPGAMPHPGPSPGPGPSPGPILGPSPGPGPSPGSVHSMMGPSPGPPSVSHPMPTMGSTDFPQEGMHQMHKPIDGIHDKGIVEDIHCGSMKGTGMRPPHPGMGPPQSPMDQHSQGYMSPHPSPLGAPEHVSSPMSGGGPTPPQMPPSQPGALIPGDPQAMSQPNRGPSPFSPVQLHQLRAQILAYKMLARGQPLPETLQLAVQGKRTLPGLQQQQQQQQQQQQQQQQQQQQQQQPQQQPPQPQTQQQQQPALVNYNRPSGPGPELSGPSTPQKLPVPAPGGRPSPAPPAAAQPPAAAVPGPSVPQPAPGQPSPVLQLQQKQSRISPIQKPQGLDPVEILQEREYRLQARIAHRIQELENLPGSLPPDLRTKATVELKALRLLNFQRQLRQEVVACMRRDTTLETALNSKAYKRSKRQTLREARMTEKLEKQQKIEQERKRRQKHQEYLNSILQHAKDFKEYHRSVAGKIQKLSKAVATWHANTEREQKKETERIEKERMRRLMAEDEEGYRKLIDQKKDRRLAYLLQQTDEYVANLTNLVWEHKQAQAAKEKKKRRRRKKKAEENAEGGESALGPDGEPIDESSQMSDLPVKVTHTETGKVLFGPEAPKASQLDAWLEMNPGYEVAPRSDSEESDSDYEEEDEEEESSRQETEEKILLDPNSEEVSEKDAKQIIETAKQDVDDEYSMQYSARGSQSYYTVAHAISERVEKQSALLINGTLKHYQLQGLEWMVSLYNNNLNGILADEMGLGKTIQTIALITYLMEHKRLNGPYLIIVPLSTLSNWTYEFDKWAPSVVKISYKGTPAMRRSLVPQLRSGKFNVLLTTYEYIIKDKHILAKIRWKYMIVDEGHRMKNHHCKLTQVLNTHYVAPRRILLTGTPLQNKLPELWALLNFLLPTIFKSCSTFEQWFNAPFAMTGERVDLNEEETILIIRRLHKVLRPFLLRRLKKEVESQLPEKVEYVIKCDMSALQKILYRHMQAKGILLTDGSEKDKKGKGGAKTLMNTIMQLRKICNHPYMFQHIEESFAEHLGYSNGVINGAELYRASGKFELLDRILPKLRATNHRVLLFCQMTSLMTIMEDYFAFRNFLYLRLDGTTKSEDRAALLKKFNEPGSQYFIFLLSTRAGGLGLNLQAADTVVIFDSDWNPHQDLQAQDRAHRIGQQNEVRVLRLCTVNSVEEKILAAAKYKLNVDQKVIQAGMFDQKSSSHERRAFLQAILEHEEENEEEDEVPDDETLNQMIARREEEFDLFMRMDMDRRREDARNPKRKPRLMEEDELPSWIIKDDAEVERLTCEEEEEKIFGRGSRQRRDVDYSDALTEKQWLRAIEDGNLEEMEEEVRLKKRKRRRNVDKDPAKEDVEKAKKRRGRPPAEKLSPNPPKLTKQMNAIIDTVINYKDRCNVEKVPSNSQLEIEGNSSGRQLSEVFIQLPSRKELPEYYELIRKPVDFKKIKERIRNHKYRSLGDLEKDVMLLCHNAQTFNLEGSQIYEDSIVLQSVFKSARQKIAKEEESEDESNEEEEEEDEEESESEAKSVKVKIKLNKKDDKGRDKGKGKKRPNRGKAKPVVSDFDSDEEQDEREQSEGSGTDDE

What is called Dmax is the greatest extent of degradation seen. The term DC50 denotes the midpoint of the concentration-degradation curve. Consider `Cc1ncsc1-c1ccc([C@H](C)NC(=O)[C@@H]2C[C@@H](O)CN2C(=O)[C@@H](c2cc(OCCN3CCC(O[C@H]4C[C@H](C#C[C@H](C)n5cc(-c6cc(-c7ccccc7O)nnc6N)cn5)C4)CC3)no2)C(C)C)cc1` [compound 415, (2S,4R)-1-((R)-2-(3-(2-(4-((1S,3R)-3-((S)-3-(4-(3-amino-6-(2-hydroxyphenyl)pyridazin-4-yl)-1H-pyrazol-1-yl)but-1-yn-1-yl)cyclobutoxy)piperidin-1-yl)ethoxy)isoxazol-5-yl)-3-methylbutanoyl)-4-hydroxy-N-((S)-1-(4-(4-methylthiazol-5-yl)phenyl)ethyl)pyrrolidine-2-carboxamide], for which the Dmax (SW1573, % degraded, when tested at the top concentration of between 0.3 and 10 μM, read-out: BRM Dmax (%)) is above 75%. Where the note is “degradation of BRM, read-out: BRM DC50”, the DC50 is below 2.5 nM. With `Cc1ncsc1-c1ccc(CNC(=O)[C@@H]2C[C@@H](O)CN2C(=O)[C@@H](c2cc(CCCOCCOCCOCCn3cc(-c4cc(-c5ccccc5O)nnc4N)cn3)no2)C(C)C)cc1` [compound 24, (2S,4R)-1-[(2R)-2-[3-(3-[2-[2-(2-[4-[3-amino-6-(2-hydroxyphenyl)pyridazin-4-yl]-1H-pyrazol-1-yl]ethoxy)ethoxy]ethoxy]propyl)-1,2-oxazol-5-yl]-3-methylbutanoyl]-4-hydroxy-N-[[4-(4-methyl-1,3-thiazol-5-yl)phenyl]methyl]pyrrolidine-2-carboxamide], under setting [1], the DC50 was 2.5 to 10 nM. The Dmax under setting [2] was above 75%. Consider `Cc1ncsc1-c1ccc([C@H](C)NC(=O)[C@@H]2C[C@@H](O)CN2C(=O)[C@@H](c2cc(OCCCN3CCC(O[C@H]4C[C@H](Oc5cc(N6C7CCC6CN(c6cc(-c8ccccc8O)nnc6N)C7)ccn5)C4)CC3)no2)C(C)C)cc1` [compound 218, (2S,4R)-1-((2R)-2-(3-(3-(4-((1r,3R)-3-((4-(3-(3-amino-6-(2-hydroxyphenyl)pyridazin-4-yl)-3,8-diazabicyclo[3.2.1]octan-8-yl)pyridin-2-yl)oxy)cyclobutoxy)piperidin-1-yl)propoxy)isoxazol-5-yl)-3-methylbutanoyl)-4-hydroxy-N-((S)-1-(4-(4-methylthiazol-5-yl)phenyl)ethyl)pyrrolidine-2-carboxamide], for which the DC50 under setting [1] was below 2.5 nM. Also, the Dmax under setting [3] was above 75%. Regarding `Cc1ncsc1-c1ccc(CNC(=O)[C@@H]2C[C@@H](O)CN2C(=O)[C@@H](c2cc(OCCN3CCN(CCOc4cc(N5C6CCC5CN(c5cc(-c7ccccc7O)nnc5N)C6)ccn4)CC3)no2)C(C)C)cc1` [compound 42, (2S,4R)-1-[(2R)-2-[3-[2-(4-[2-[(4-[3-[3-amino-6-(2-hydroxyphenyl)pyridazin-4-yl]-3,8-diazabicyclo[3.2.1]octan-8-yl]pyridin-2-yl)oxy]ethyl]piperazin-1-yl)ethoxy]-1,2-oxazol-5-yl]-3-methylbutanoyl]-4-hydroxy-N-[[4-(4-methyl-1,3-thiazol-5-yl)phenyl]methyl]pyrrolidine-2-carboxamide], the DC50 under setting [1] was below 2.5 nM. Further, under setting [2], the Dmax is above 75%. With `Cc1ncsc1-c1c(F)cc([C@H](C)NC(=O)[C@@H]2C[C@@H](O)CN2C(=O)[C@@H](c2cc(N3CCC(CN4CCC(O[C@H]5C[C@H](Oc6cc(N7C8CCC7CN(c7cc(-c9ccccc9O)nnc7N)C8)ccn6)C5)CC4)CC3)no2)C(C)C)cc1F` [compound 666, (2S,4R)-1-((2R)-2-(3-(4-((4-((1r,3r)-3-((4-(3-(3-amino-6-(2-hydroxyphenyl)pyridazin-4-yl)-3,8-diazabicyclo[3.2.1]octan-8-yl)pyridin-2-yl)oxy)cyclobutoxy)piperidin-1-yl)methyl)piperidin-1-yl)isoxazol-5-y1)-3-methylbutanoyl)-N-((S)-1-(3,5-difluoro-4-(4-methylthiazol-5-yl)phenyl)ethyl)-4-hydroxypyrrolidine-2-carboxamide], the DC50 under setting [1] was below 2.5 nM. The Dmax under setting [4] is above 75%. Consider `Cc1ncsc1-c1ccc([C@H](C)NC(=O)[C@@H]2C[C@@H](O)CN2C(=O)[C@H](c2cc(N3CCC(F)(CN4CCC(O[C@H]5C[C@H](Oc6cc(N7C8CCC7CN(c7cc(-c9ccccc9O)nnc7N)C8)ccn6)C5)CC4)CC3)no2)C(C)C)cc1` [compound 682, (2S,4R)-1-((2S)-2-(3-(4-((4-((1r,3r)-3-((4-(3-(3-amino-6-(2-hydroxyphenyl)pyridazin-4-yl)-3,8-diazabicyclo[3.2.1]octan-8-yl)pyridin-2-yl)oxy)cyclobutoxy)piperidin-1-yl)methyl)-4-fluoropiperidin-1-yl)isoxazol-5-yl)-3-methylbutanoyl)-4-hydroxy-N-((S)-1-(4-(4-methylthiazol-5-yl)phenyl)ethyl)pyrrolidine-2-carboxamide], for which the DC50 under setting [1] lay within 2.5 to 10 nM. In addition, under setting [4], the Dmax was above 75%. For the compound `Cc1ncsc1-c1ccc([C@H](C)NC(=O)[C@@H]2C[C@@H](O)CN2C(=O)[C@H](c2cc(OCCN3CCN(CCOc4cc(N5C6CCC5CN(c5cc(-c7ccccc7O)nnc5N)C6)ccn4)CC3)no2)C(C)C)cn1` [compound 160, (2S,4R)-1-((2S)-2-(3-(2-(4-(2-((4-(3-(3-amino-6-(2-hydroxyphenyl)pyridazin-4-yl)-3,8-diazabicyclo[3.2.1]octan-8-yl)pyridin-2-yl)oxy)ethyl)piperazin-1-yl)ethoxy)isoxazol-5-yl)-3-methylbutanoyl)-4-hydroxy-N-((S)-1-(6-(4-methylthiazol-5-yl)pyridin-3-yl)ethyl)pyrrolidine-2-carboxamide], the DC50 under setting [1] was above 30 nM. The Dmax under setting [3] is above 75%. Regarding `Cc1ncsc1-c1ccc(CNC(=O)[C@@H]2C[C@@H](O)CN2C(=O)[C@H](C(C)C)N2Cc3ccccc3C2=O)c(OCCOCCOCCOCCOCCn2cc(-c3cc(-c4ccccc4O)nnc3N)cn2)c1` [compound 13, (2S,4R)-N-(2-((14-(4-(3-amino-6-(2-hydroxyphenyl)pyridazin-4-yl)-1H-pyrazol-1-yl)-3,6,9,12-tetraoxatetradecyl)oxy)-4-(4-methylthiazol-5-yl)benzyl)-4-hydroxy-1-((S)-3-methyl-2-(1-oxoisoindolin-2-yl)butanoyl)pyrrolidine-2-carboxamide], under setting [1], the DC50 was above 30 nM. Also, the Dmax under setting [2] was above 75%.

Under “BRM degradation, SW1573 cells, Table 2D”, `Cc1ncsc1-c1ccc([C@H](C)NC(=O)[C@@H]2C[C@@H](O)CN2C(=O)[C@@H](c2cc(OCCN3CCC(O[C@H]4C[C@H](Oc5cc(N6C7CCC6CN(c6cc(-c8ccccc8)nnc6N)C7)ccn5)C4)CC3)no2)C(C)C)cc1` [compound 537, (2S,4R)-1-((2R)-2-(3-(2-(4-((1r,3R)-3-((4-(3-(3-amino-6-phenylpyridazin-4-yl)-3,8-diazabicyclo[3.2.1]octan-8-yl)pyridin-2-yl)oxy)cyclobutoxy)piperidin-1-yl)ethoxy)isoxazol-5-yl)-3-methylbutanoyl)-4-hydroxy-N-((S)-1-(4-(4-methylthiazol-5-yl)phenyl)ethyl)pyrrolidine-2-carboxamide] returned a half-maximal degradation concentration (DC50) above 30 nM. Take `Cc1ncsc1-c1ccc(CNC(=O)[C@@H]2C[C@@H](O)CN2C(=O)[C@@H](NC(=O)COCCOCCn2cc(-c3cc(-c4ccccc4O)nnc3N)cn2)C(C)(C)C)cc1` [compound 11, (2S,4R)-1-((S)-2-(2-(2-(2-(4-(3-amino-6-(2-hydroxyphenyl)pyridazin-4-yl)-1H-pyrazol-1-yl)ethoxy)ethoxy)acetamido)-3,3-dimethylbutanoyl)-4-hydroxy-N-(4-(4-methylthiazol-5-yl)benzyl)pyrrolidine-2-carboxamide]: the DC50 under setting [1] was above 30 nM. Moreover, the Dmax under setting [2] was above 75%. Regarding `Cc1ncoc1-c1ccc([C@H](C)NC(=O)[C@@H]2C[C@@H](O)CN2C(=O)[C@@H](c2cc(N3CCC(CN4CCC(O[C@H]5C[C@H](Oc6cc(N7C8CCC7CN(c7cc(-c9ccccc9O)nnc7N)C8)ccn6)C5)CC4)CC3)no2)C(C)C)cc1` [compound 674, (2S,4R)-1-((2R)-2-(3-(4-((4-((1r,3r)-3-((4-(3-(3-amino-6-(2-hydroxyphenyl)pyridazin-4-yl)-3,8-diazabicyclo[3.2.1]octan-8-yl)pyridin-2-yl)oxy)cyclobutoxy)piperidin-1-yl)methyl)piperidin-1-yl)isoxazol-5-yl)-3-methylbutanoyl)-4-hydroxy-N-((S)-1-(4-(4-methyloxazol-5-yl)phenyl)ethyl)pyrrolidine-2-carboxamide], the DC50 under setting [1] was below 2.5 nM. The Dmax under setting [4] is above 75%. In the case of `CC(C)[C@H](C(=O)N1C[C@H](O)C[C@H]1C(=O)N[C@@H](C)c1ccc(-c2ccnn2C)cc1)c1cc(N2CCC(CN3CCC(O[C@H]4C[C@H](Oc5cc(N6C7CCC6CN(c6cc(-c8ccccc8O)nnc6N)C7)ccn5)C4)CC3)CC2)no1` [compound 631, (2S,4R)-1-((2S)-2-(3-(4-((4-((1r,3r)-3-((4-(3-(3-amino-6-(2-hydroxyphenyl)pyridazin-4-yl)-3,8-diazabicyclo[3.2.1]octan-8-yl)pyridin-2-yl)oxy)cyclobutoxy)piperidin-1-yl)methyl)piperidin-1-yl)isoxazol-5-yl)-3-methylbutanoyl)-4-hydroxy-N-((S)-1-(4-(1-methyl-1H-pyrazol-5-yl)phenyl)ethyl)pyrrolidine-2-carboxamide], under setting [1], the DC50 was below 2.5 nM. Besides, the Dmax under setting [4] was above 75%. With `Cc1ncsc1-c1ccc(CNC(=O)[C@@H]2C[C@@H](O)CN2C(=O)[C@H](c2cc(OCCOCCOCCOCCn3cc(-c4cc(-c5ccccc5O)nnc4N)cn3)no2)C(C)C)cc1` [compound 16, (2S,4R)-1-((S)-2-(3-(2-(2-(2-(2-(4-(3-amino-6-(2-hydroxyphenyl)pyridazin-4-yl)-1H-pyrazol-1-yl)ethoxy)ethoxy)ethoxy)ethoxy)isoxazol-5-yl)-3-methylbutanoyl)-4-hydroxy-N-(4-(4-methylthiazol-5-yl)benzyl)pyrrolidine-2-carboxamide], the DC50 under setting [1] was above 30 nM. Moreover, the Dmax under setting [2] lay within 50 to 75%.
